According to article PMC5430874 (Scientific Reports, 2017):
Changes are numbered by the printed parent chain. Where two headings read alike, the source gives them in different places.

Legend:
Assay type in all cases: cell-based
myc-GPR139(WT) = target: T1, myc-GPR139(WT) (Homo sapiens, UniProt Q6DWJ6); experiment: Fluo-4 Ca2+-assay, myc-tagged wild-type GPR139 in HEK293; conditions: for Emax: HEK293; for EC50: Fluo-4 Ca2+-assay
T1 construct: mGluR5 signal peptide (N); expressed in transfected cells; host or cells: HEK293
T1 sequence (Q6DWJ6 2-353 limits assumed): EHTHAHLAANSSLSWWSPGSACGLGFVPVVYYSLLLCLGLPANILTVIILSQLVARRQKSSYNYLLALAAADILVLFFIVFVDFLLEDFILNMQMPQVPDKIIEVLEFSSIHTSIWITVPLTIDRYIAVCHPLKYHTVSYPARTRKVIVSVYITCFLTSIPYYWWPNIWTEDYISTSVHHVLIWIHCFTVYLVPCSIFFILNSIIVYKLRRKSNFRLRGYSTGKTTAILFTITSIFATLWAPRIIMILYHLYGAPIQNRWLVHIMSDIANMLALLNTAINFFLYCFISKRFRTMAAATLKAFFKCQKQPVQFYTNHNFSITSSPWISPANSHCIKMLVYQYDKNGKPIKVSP
Text: (§1) To study the influence of specific amino acids in the predicted binding pocket on receptor function, the desired mutations were introduced into an N-terminally c-myc-tagged wild type human GPR139 (NM_001002911.3) in the pEGFP-N1 vector (BD Biosciences)[32], [33]. As previously described, these plasmids carry the signal peptide of mGluR5 to promote cell surface expression followed by a c-myc epitope to enable detection of total and surface expression by ELISA, followed by an engineered MluI and NotI site for easy insertion of the receptor of interest. Furthermore, the start-codon in the GPR139 sequence was deleted to ensure c-myc-tagging. Mutagenesis was designed in Serial Cloner 2.6 (© Franck Perez [SerialBasics]) and carried out by GenScript (USA). All mutated residues are illustrated in Supplementary Fig. 1b. An untagged GPR139(WT) in pEGFP-N1 was also generated to ensure that the c-myc-tag had no influence on GPR139(WT) function.
(§2) All GPR139 mutants were transfected into HEK293 cells. The HEK293 cells were grown in Dulbecco’s modified Eagle’s medium (DMEM) (Gibco, 41965) supplemented with 10% dialyzed fetal bovine serum (Gibco, 26400, United States origin), 100 units/mL penicillin and 100 μg/mL streptomycin (Gibco, 15140). HEK293 cells were reverse transfected using Lipofectamine2000 (Invitrogen). More specifically two mixtures were made: 1) 10 ng DNA/well + 25 μL Opti-MEM/well and 2) […] Lipofectamine2000/well + 25 μL Opti-MEM/well. The two mixtures were mixed and 50 μL/well was added directly in black 96-well plates with flat clear bottoms for the Fluo-4 Ca^2+-assay (Corning, Falcon, 353219) or in white Opaque 96-well Microplate (PerkinElmer Life, 6005680) for ELISA. 100 μL containing 20,000 cells were added to each well and incubated 48 hours before assays. All plates were coated with poly-D-lysine.
(§3) Compound 1a (1a) was kindly provided by H. Lundbeck A/S, Denmark. […] Both compounds were dissolved to 20 mM in DMSO (Sigma, D2650) and subsequently diluted in a HEPES buffer (HBSS (Gibco, 14025) supplemented with 20 mM HEPES + 1 mM MgCl2 + 1 mM CaCl2, pH = 7.4) to a final concentration of 0.5% DMSO in the Fluo-4 Ca^2+-assay. The DMSO level was kept constant for all concentrations of both compounds. DMSO was confirmed not to have any activity by itself at this concentration. L-Trp (T0254) and L -Phe (P2126) were obtained from Sigma-Aldrich and dissolved in buffer.
(§4) The Ca^2+ measurements were preformed using the Fluo-4 NW Calcium Assay Kit (Invitrogen, Molecular Probes, F36206) as previously described. Briefly, the Fluo-4 dye loading solution was prepared according to the manufacturer’s instructions by dissolving it in HEPES-buffer supplemented with 2.5 mM probenecid. 50 μL dye loading solution was added to each well. Cells were incubated with the Fluo-4 dye for 60 min at 37 °C, then washed with 100 μL HEPES-buffer. 100 μL HEPES-buffer supplemented with 2.5 mM probenecid was then added to each well and incubated in 10 minutes at 37 °C before measurement. […] Intracellular calcium changes were recorded as indicated on either a NOVOstar (BMG Labtech) at 37 °C with an excitation filter of 485 nm and an emission filters 520 nm or a FlexStation 3 Benchtop Multi-Mode Microplate Reader (Molecular Devices) at 37 °C with an excitation wavelength of 485 nm and emission of 525 nm.
(§5) All pharmacological data have been analyzed by using Prism 6.0 (GraphPad Software Inc., San Diego). Fitting of concentration response curves was performed by non-linear regression log(agonist) vs. response (four parameters). Pooled data are shown with standard error of the mean (S.E.M.) and data showing one representative are shown with standard deviation (S.D.). Changes in potency (pEC50) and span of myc-GPR139(WT) in comparison to untagged GPR139(WT) was statistically analyzed with a paired t-test and significance was accepted at p < 0.05. The ELISA data were normalized to surface expression of myc-GPR139(WT) (100%). […]

GPR139 F109L^3×33 = target: T2, GPR139 F109L^3×33 (Homo sapiens, UniProt Q6DWJ6, F109L); experiment: Fluo-4 Ca2+-assay, GPR139 mutant F109L; conditions: for EC50: F109L mutant
T2 construct: mGluR5 signal peptide (N); expressed in transfected cells; host or cells: HEK293
T2 sequence (Q6DWJ6 2-353 F109L limits assumed): T1 sequence (Q6DWJ6 2-353 limits assumed) with F108L
Text: as §1, §2, §3, §4, §5

GPR139 F109A^3×33 = target: T3, GPR139 F109A^3×33 (Homo sapiens, UniProt Q6DWJ6, F109A); experiment: Fluo-4 Ca2+-assay, GPR139 mutant F109A; design: key to Emax ± SEM: NE: no effect (loss of activity); conditions: for EC50: F109A mutant; for Change of in vitro potency: F109A mutant versus WT, fold decreased
T3 construct: mGluR5 signal peptide (N); expressed in transfected cells; host or cells: HEK293
T3 sequence (Q6DWJ6 2-353 F109A limits assumed): T1 sequence (Q6DWJ6 2-353 limits assumed) with F108A
Text: as §1, §2, §3, §4, §5

[1] = WT, HEK293, three independent experiments, read-out: pEC50 ± SEM (converted)

Emax (myc-GPR139(WT); WT, normalized to buffer (0%) and 30 mM Phe (100%)) [%]	EC50 (myc-GPR139(WT); [1]) [µM]	EC50 (GPR139 F109L^3×33) [µM]	Emax at 30000 µM (GPR139 F109L^3×33; F109L, at 30 mM, normalized to buffer (0%) and 30 mM Phe (100%) on WT) [%]	EC50 (GPR139 F109A^3×33) [µM]	Emax at 30000 µM (GPR139 F109A^3×33; F109A, at 30 mM, normalized to buffer (0%) and 30 mM Phe (100%) on WT) [%]	EC50 (myc-GPR139(WT); myc-tagged wild-type (WT) receptor, read-out: EC50) [µM]	Emax at 8 µM (GPR139 F109L^3×33; F109L, at 8 μM, normalized to buffer (0%) and 8 μM 1a (100%) on WT) [%]	Change of in vitro potency (GPR139 F109A^3×33)	Emax ± SEM (GPR139 F109A^3×33; F109A, at 8 μM, normalized to buffer (0%) and 8 μM 1a (100%) on WT)	Emax (myc-GPR139(WT)) [%]	Emax (GPR139 F109L^3×33) [%]	change of potency (GPR139 F109L^3×33; F109L mutant versus WT)	Emax at 100 µM (GPR139 F109A^3×33) [%]	SMILES	Emax (myc-GPR139(WT); WT, normalized to buffer (0%) and 10 mM Trp (100%)) [%]	Emax at 10000 µM (GPR139 F109L^3×33; F109L, at 10 mM, normalized to buffer (0%) and 10 mM Trp (100%) on WT) [%]	Emax at 10000 µM (GPR139 F109A^3×33; F109A, at 10 mM, normalized to buffer (0%) and 10 mM Trp (100%) on WT) [%]
100	372	> 31600	72 ± 9	> 31600	60 ± 6	–	–	–	–	–	–	–	–	N[C@@H](Cc1ccccc1)C(=O)O [L-Phe, phenylalanine]	–	–	–
–	0.234	> 7.94	–	> 7.94	–	0.67	42 ± 16	Loss of function	NE*	–	–	–	–	COc1cc(OC)cc(C(=O)NNC(=O)Nc2cccc3ccccc23)c1 [Compound 1a]	–	–	–
–	0.0479	3.98	–	> 100	–	–	–	>2000 fold decreased	–	100	102 ± 3	~ 100 fold	60 ± 3	C[C@@H](NC(=O)CNC(=O)c1cccc(Cl)c1)c1ccccc1 (racemic) [Compound 7c]	–	–	–

SMILES	Emax (myc-GPR139(WT); WT, normalized to buffer (0%) and 30 mM Phe (100%)) [%]	EC50 (myc-GPR139(WT); [1]) [µM]	EC50 (GPR139 F109L^3×33) [µM]	Emax at 30000 µM (GPR139 F109L^3×33; F109L, at 30 mM, normalized to buffer (0%) and 30 mM Phe (100%) on WT) [%]	EC50 (GPR139 F109A^3×33) [µM]	Emax at 30000 µM (GPR139 F109A^3×33; F109A, at 30 mM, normalized to buffer (0%) and 30 mM Phe (100%) on WT) [%]	EC50 (myc-GPR139(WT); myc-tagged wild-type (WT) receptor, read-out: EC50) [µM]	Emax at 8 µM (GPR139 F109L^3×33; F109L, at 8 μM, normalized to buffer (0%) and 8 μM 1a (100%) on WT) [%]	Change of in vitro potency (GPR139 F109A^3×33)	Emax ± SEM (GPR139 F109A^3×33; F109A, at 8 μM, normalized to buffer (0%) and 8 μM 1a (100%) on WT)	Emax (myc-GPR139(WT)) [%]	Emax (GPR139 F109L^3×33) [%]	change of potency (GPR139 F109L^3×33; F109L mutant versus WT)	Emax at 100 µM (GPR139 F109A^3×33) [%]	Emax (myc-GPR139(WT); WT, normalized to buffer (0%) and 10 mM Trp (100%)) [%]	Emax at 10000 µM (GPR139 F109L^3×33; F109L, at 10 mM, normalized to buffer (0%) and 10 mM Trp (100%) on WT) [%]	Emax at 10000 µM (GPR139 F109A^3×33; F109A, at 10 mM, normalized to buffer (0%) and 10 mM Trp (100%) on WT) [%]
N[C@@H](Cc1c[nH]c2ccccc12)C(=O)O [L-Trp, tryptophan]	–	200	> 10000	–	> 10000	–	–	–	–	–	–	–	–	–	100	60 ± 5	60 ± 10
